Here are results for five compounds from article doi:10.1101/2023.03.24.534094v2 (biorxiv, 2023).

Molecules are shown by their SMILES. Like-named read-outs stand apart in the source and are kept apart here.

Among the targets are CaMK1d (Homo sapiens, UniProt Q8IU85); CaMK2b (Homo sapiens, UniProt Q13554); JNK3 (Homo sapiens, UniProt P53779); SLK (Homo sapiens, UniProt Q9H2G2); SRC (Homo sapiens, UniProt P12931).
Common to all, as to experiment: biochemical
A further test deals with T1, BMPR2 (Homo sapiens, UniProt Q13873).
T1 sequence (Q13873 1-1038): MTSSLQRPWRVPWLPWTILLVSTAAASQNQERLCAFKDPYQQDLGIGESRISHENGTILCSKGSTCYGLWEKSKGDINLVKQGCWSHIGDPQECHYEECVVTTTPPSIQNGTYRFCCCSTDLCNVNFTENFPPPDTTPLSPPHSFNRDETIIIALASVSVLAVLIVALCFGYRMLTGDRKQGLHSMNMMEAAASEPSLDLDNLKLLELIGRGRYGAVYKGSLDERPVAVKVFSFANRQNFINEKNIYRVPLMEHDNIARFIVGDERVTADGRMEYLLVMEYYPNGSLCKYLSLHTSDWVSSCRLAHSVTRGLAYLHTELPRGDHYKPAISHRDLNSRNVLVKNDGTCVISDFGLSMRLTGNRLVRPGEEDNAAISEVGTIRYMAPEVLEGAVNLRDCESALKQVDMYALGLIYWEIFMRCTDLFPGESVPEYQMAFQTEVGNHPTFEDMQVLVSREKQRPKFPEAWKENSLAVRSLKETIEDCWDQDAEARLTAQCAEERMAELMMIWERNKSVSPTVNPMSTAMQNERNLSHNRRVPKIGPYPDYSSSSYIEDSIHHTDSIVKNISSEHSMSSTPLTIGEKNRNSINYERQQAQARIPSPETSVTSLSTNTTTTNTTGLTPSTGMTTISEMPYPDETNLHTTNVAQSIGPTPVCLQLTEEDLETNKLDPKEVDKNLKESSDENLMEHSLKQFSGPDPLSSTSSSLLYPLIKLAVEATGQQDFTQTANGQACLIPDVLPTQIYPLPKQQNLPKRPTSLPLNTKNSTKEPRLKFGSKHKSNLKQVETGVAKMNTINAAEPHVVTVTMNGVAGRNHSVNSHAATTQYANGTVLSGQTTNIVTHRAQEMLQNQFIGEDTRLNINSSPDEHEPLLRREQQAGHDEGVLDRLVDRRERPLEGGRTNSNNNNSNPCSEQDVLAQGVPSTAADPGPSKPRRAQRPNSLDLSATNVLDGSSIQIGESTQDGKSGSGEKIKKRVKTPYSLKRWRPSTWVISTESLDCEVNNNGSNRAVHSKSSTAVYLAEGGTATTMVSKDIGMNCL

The next test addresses T2, Erk7 (Homo sapiens, UniProt Q8TD08).
T2 sequence (Q8TD08 1-544): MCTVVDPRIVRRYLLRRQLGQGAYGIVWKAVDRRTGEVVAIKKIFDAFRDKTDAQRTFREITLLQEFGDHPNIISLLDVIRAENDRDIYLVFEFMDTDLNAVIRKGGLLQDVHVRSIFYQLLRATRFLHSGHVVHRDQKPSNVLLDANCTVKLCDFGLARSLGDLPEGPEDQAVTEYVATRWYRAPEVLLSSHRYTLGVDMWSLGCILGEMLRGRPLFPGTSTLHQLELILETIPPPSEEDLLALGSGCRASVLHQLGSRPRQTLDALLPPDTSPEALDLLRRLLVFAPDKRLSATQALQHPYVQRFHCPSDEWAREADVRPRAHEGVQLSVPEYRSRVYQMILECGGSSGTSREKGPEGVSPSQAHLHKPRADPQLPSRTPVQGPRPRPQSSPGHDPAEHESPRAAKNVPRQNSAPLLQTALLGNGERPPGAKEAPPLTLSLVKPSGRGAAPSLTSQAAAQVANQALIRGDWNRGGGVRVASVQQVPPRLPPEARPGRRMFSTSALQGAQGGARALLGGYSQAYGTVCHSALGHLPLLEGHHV

The target in a further test is T3, MARK4 (Homo sapiens, UniProt Q96L34).
T3 sequence (Q96L34 1-752): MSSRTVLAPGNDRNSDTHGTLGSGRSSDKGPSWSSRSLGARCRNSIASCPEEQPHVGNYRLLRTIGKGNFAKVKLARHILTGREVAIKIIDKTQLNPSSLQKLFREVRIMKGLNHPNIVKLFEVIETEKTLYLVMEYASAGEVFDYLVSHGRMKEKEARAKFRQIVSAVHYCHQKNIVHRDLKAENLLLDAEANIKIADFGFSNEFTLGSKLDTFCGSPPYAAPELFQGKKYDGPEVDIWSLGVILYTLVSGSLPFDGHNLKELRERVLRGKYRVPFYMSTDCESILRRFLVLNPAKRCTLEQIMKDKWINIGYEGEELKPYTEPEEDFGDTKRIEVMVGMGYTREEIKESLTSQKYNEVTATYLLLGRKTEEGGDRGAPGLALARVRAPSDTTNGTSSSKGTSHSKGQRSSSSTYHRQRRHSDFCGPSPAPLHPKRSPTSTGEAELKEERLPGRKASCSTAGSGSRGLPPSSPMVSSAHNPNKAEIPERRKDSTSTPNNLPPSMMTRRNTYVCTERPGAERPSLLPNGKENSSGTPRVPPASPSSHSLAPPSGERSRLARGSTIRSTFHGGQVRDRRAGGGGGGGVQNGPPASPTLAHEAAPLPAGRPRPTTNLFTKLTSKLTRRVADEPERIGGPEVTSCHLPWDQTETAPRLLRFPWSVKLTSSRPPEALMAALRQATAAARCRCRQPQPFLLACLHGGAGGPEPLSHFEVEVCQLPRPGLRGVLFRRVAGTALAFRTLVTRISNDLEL

JNK3, sequence (P53779 whole entry): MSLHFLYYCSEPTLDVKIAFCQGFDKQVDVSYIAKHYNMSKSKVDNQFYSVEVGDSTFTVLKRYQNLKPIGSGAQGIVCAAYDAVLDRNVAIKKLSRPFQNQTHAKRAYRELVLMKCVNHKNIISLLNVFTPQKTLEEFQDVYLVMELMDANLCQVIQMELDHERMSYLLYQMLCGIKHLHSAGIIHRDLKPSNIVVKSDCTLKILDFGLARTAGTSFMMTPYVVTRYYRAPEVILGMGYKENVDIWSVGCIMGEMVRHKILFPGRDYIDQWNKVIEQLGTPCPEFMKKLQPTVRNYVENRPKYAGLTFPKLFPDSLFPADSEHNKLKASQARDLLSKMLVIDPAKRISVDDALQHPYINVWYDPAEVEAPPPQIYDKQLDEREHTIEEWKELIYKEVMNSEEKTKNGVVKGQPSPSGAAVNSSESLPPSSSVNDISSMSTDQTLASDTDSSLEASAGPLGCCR
CaMK2b, sequence (Q13554 whole entry): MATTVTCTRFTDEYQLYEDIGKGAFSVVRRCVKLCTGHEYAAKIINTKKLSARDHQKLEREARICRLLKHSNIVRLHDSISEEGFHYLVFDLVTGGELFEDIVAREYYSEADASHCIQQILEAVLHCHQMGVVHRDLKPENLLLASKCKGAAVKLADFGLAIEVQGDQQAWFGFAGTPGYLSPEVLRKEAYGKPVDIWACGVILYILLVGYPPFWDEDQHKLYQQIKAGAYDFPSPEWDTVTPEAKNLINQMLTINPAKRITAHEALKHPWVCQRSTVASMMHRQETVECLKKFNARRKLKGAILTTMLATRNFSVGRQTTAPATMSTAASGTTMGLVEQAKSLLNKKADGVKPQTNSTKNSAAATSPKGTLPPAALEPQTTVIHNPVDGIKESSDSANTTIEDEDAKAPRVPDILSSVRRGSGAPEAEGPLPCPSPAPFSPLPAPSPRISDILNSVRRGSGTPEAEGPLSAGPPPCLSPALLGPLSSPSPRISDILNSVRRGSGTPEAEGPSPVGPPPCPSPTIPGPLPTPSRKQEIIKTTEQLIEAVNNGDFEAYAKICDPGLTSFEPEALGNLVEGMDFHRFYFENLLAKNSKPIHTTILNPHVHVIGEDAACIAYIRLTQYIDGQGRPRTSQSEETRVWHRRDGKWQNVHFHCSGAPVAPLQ
CaMK1d, sequence (Q8IU85 whole entry): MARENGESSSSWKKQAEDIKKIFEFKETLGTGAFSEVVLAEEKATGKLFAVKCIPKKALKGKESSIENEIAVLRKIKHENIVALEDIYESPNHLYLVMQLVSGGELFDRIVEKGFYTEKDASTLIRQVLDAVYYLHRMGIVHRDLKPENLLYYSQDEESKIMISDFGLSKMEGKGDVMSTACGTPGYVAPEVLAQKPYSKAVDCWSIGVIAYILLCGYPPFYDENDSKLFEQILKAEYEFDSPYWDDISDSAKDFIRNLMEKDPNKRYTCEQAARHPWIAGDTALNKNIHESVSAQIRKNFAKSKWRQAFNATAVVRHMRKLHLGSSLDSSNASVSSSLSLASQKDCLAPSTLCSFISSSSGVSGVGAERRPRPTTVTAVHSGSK
SLK, sequence (Q9H2G2 whole entry): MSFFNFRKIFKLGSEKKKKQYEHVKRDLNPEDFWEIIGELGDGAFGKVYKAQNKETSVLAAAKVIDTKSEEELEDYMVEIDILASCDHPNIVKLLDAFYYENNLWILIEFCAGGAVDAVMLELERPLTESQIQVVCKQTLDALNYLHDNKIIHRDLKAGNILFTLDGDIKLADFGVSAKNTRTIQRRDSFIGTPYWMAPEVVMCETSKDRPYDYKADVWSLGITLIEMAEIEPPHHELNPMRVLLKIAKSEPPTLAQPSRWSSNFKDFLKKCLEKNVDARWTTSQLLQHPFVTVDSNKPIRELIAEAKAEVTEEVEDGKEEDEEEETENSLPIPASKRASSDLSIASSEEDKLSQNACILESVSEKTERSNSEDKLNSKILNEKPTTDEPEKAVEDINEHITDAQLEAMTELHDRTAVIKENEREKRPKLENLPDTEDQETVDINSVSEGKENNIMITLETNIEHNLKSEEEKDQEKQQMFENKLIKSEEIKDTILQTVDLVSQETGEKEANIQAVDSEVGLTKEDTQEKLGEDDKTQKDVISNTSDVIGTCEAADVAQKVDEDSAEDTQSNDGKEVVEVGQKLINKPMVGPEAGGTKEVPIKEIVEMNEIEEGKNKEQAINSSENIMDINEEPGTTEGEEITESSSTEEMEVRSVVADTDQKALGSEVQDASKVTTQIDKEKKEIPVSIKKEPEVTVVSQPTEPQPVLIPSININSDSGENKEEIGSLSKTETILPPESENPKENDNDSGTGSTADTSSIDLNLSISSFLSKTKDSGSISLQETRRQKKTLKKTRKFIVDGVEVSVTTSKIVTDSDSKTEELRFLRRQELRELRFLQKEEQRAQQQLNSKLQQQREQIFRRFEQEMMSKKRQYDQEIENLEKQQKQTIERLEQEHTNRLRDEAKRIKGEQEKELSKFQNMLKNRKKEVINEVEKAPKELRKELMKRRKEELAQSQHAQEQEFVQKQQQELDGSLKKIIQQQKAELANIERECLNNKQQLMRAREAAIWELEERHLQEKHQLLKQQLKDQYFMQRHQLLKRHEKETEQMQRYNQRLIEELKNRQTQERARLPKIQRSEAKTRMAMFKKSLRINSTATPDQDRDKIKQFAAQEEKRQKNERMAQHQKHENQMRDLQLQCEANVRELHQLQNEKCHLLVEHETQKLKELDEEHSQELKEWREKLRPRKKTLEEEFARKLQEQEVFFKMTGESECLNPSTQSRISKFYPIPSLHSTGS
SRC, sequence (P12931 whole entry): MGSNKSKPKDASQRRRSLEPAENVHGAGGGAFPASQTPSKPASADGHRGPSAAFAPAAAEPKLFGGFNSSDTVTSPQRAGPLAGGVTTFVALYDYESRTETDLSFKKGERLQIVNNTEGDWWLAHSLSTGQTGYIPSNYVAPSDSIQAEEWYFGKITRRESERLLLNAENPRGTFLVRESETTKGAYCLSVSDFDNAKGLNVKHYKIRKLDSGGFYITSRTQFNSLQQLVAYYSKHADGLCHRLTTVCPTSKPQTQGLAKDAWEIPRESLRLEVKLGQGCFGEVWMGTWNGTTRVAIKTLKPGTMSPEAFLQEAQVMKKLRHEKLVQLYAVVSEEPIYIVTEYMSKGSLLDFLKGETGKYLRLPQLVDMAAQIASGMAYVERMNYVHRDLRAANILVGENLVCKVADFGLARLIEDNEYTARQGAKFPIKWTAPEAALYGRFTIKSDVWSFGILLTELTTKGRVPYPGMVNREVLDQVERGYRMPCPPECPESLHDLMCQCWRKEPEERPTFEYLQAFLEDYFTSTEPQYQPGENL

Take `CNc1ncc2cc(-c3ccc(-c4cccc(C)n4)cc3Cl)c(=O)n(CC3OCC(N)CO3)c2n1` (stereo not shown) [compound 2, G-5555]: the “dTm G-5555 (2)” value was -0.4 °C on BMPR2 (10 µM, binder); 4.5 °C at CaMK1d (10 µM, binder); -1.7 °C at CaMK2b (10 µM, binder); 0.3 °C at Erk7 (10 µM, binder); 1.8 °C at JNK3 (10 µM, binder); 7.7 °C at MARK4 (10 µM, binder). The “dTm G-5555 (2)” value at SLK (10 µM, binder) is 7.2 °C; at SRC (10 µM, binder), -0.2 °C.
With `CNc1ncc2cc(-c3ccccc3Cl)c(=O)n(CCCCN)c2n1` [compound 4, 8-(4-Aminobutyl)-6-(2-chlorophenyl)-2-(methylamino)pyrido[2,3-d]pyrimidin-7(8H)-one], the ΔTm at 10 µM was 1.6 °C at BMPR2 (read-out: dTm MR21 (4)); 2.7 °C at CaMK1d (read-out: dTm MR21 (4)); -1.1 °C at CaMK2b (read-out: dTm MR21 (4)); 0.8 °C at Erk7 (read-out: dTm MR21 (4)); 2.7 °C on JNK3 (read-out: dTm MR21 (4)); 3 °C on MARK4 (read-out: dTm MR21 (4)). Moreover, the ΔTm at 10 µM on SLK (read-out: dTm MR21 (4)) was determined as 1.6 °C; on SRC (read-out: dTm MR21 (4)) it was 2.6 °C.
With `CNc1ncc2cc(-c3cc(Br)ccc3Cl)c(=O)n(C[C@H]3OC[C@H](N)CO3)c2n1` [compound 7, 8-(((2r,5r)-5-Amino-1,3-dioxan-2-yl)methyl)-6-(5-bromo-2-chlorophenyl)-2-(methylamino)pyrido[2,3-d]pyrimidin-7(8H)-one], the ΔTm at 10 µM was 0 °C at BMPR2 (read-out: dTm 7); 0.4 °C on CaMK1d (read-out: dTm 7); 0.2 °C at CaMK2b (read-out: dTm 7); 0.1 °C at Erk7 (read-out: dTm 7); 0.5 °C at JNK3 (read-out: dTm 7); 0.8 °C on MARK4 (read-out: dTm 7). Further, at SRC (read-out: dTm 7), the ΔTm at 10 µM is 0.1 °C.
For the compound `CNc1ncc2cc(-c3cc(Br)ccc3Cl)c(=O)n(CCCCN)c2n1` [compound 6, 8-(4-Aminobutyl)-6-(5-bromo-2-chlorophenyl)-2-(methylamino)pyrido[2,3-d]pyrimidin-7(8H)-one], the ΔTm at 10 µM on BMPR2 (read-out: dTm 6) is -0.3 °C; at CaMK1d (read-out: dTm 6), 2.1 °C; at CaMK2b (read-out: dTm 6) it was 0.1 °C; at Erk7 (read-out: dTm 6), 0.3 °C; on JNK3 (read-out: dTm 6), 1.1 °C; at MARK4 (read-out: dTm 6), 1.7 °C. In addition, the ΔTm at 10 µM on SRC (read-out: dTm 6) came out at 0.2 °C.
Consider `CNc1ncc2cc(-c3cc(F)ccc3F)c(=O)n(CCCCN)c2n1` [compound 5, 8-(4-Aminobutyl)-6-(2,5-difluorophenyl)-2-(methylamino)pyrido[2,3-d]pyrimidin-7(8H)-one], for which the ΔTm at 10 µM was 0.3 °C at BMPR2 (read-out: dTm MR22 (5)); -1.2 °C on CaMK1d (read-out: dTm MR22 (5)); -0.6 °C on CaMK2b (read-out: dTm MR22 (5)); -1.5 °C at Erk7 (read-out: dTm MR22 (5)); 0 °C at MARK4 (read-out: dTm MR22 (5)); -0.6 °C on SLK (read-out: dTm MR22 (5)). On SRC (read-out: dTm MR22 (5)), the ΔTm at 10 µM worked out at 0.7 °C.
